Results as given in BindingDB's records for doi:10.1016/j.bmc.2012.07.032 (Takeda Pharmaceutical, 2012).

Test: Inhibition of VEGFR2 in HUVEC assessed as reduction of VGF-stimulated cell proliferation after 5 days

SMILES: CN(c1ccc(F)c(NC(=O)c2cccc(OC(C)(C)C#N)c2Cl)c1)c1ccc2nc(NC(=O)C3CC3)sc2n1
- IC50: 1.2 nM
